Assay: Stability of cannabinoid compounds and Vitamin E components in Beverage 1 (AB White) by LCMSMS
Type: physicochemical
Conditions: for Stability of Plant-Derived Cannabinoid Compounds in AB White, 8° C.: AB White stored at 8° C.; for Stability of Plant-Derived Cannabinoid Compounds in AB White, 21-25° C.: AB White stored at 21-25° C.

Compound: CCCCCc1cc(O)c2c(c1)OC(C)(CCC=C(C)C)C=C2 (centres unmarked) [CBC, cannabichromene]
- Stability of Plant-Derived Cannabinoid Compounds in AB White, 8° C. (0 days): 0.320 µg/mL
- Stability of Plant-Derived Cannabinoid Compounds in AB White, 8° C. (1 days): 0.314 µg/mL
- Stability of Plant-Derived Cannabinoid Compounds in AB White, 8° C. (2 days): 0.315 µg/mL
- Stability of Plant-Derived Cannabinoid Compounds in AB White, 8° C. (3 days): 0.322 µg/mL
- Stability of Plant-Derived Cannabinoid Compounds in AB White, 8° C. (5 days): 0.322 µg/mL
- Stability of Plant-Derived Cannabinoid Compounds in AB White, 8° C. (8 days): 0.318 µg/mL
- Stability of Plant-Derived Cannabinoid Compounds in AB White, 8° C. (9 days): 0.319 µg/mL
- Stability of Plant-Derived Cannabinoid Compounds in AB White, 8° C. (10 days): 0.314 µg/mL
- Stability of Plant-Derived Cannabinoid Compounds in AB White, 8° C. (11 days): 0.314 µg/mL
- Stability of Plant-Derived Cannabinoid Compounds in AB White, 8° C. (12 days): 0.319 µg/mL
- Stability of Plant-Derived Cannabinoid Compounds in AB White, 8° C. (15 days): 0.317 µg/mL
- Stability of Plant-Derived Cannabinoid Compounds in AB White, 8° C. (16 days): 0.320 µg/mL
- Stability of Plant-Derived Cannabinoid Compounds in AB White, 8° C. (17 days): 0.315 µg/mL
- Stability of Plant-Derived Cannabinoid Compounds in AB White, 8° C. (18 days): 0.312 µg/mL
- Stability of Plant-Derived Cannabinoid Compounds in AB White, 8° C. (19 days): 0.317 µg/mL
- Stability of Plant-Derived Cannabinoid Compounds in AB White, 8° C. (22 days): 0.315 µg/mL
- Stability of Plant-Derived Cannabinoid Compounds in AB White, 8° C. (23 days): 0.321 µg/mL
- Stability of Plant-Derived Cannabinoid Compounds in AB White, 8° C. (24 days): 0.316 µg/mL
- Stability of Plant-Derived Cannabinoid Compounds in AB White, 8° C. (25 days): 0.310 µg/mL
- Stability of Plant-Derived Cannabinoid Compounds in AB White, 8° C. (26 days): 0.316 µg/mL
- Stability of Plant-Derived Cannabinoid Compounds in AB White, 8° C. (29 days): 0.321 µg/mL
- Stability of Plant-Derived Cannabinoid Compounds in AB White, 8° C. (30 days): 0.31 µg/mL
- Stability of Plant-Derived Cannabinoid Compounds in AB White, 8° C. (60 days): 0.316 µg/mL
- Stability of Plant-Derived Cannabinoid Compounds in AB White, 8° C. (90 days): 0.318 µg/mL
- Stability of Plant-Derived Cannabinoid Compounds in AB White, 8° C. (120 days): 0.311 µg/mL
- Stability of Plant-Derived Cannabinoid Compounds in AB White, 8° C. (150 days): 0.314 µg/mL
- Stability of Plant-Derived Cannabinoid Compounds in AB White, 8° C. (180 days): 0.319 µg/mL
- Stability of Plant-Derived Cannabinoid Compounds in AB White, 8° C. (210 days): 0.309 µg/mL
- Stability of Plant-Derived Cannabinoid Compounds in AB White, 8° C. (240 days): 0.316 µg/mL
- Stability of Plant-Derived Cannabinoid Compounds in AB White, 8° C. (270 days): 0.316 µg/mL
- Stability of Plant-Derived Cannabinoid Compounds in AB White, 8° C. (300 days): 0.313 µg/mL
- Stability of Plant-Derived Cannabinoid Compounds in AB White, 8° C. (330 days): 0.316 µg/mL
- Stability of Plant-Derived Cannabinoid Compounds in AB White, 8° C. (360 days): 0.306 µg/mL
- Stability of Plant-Derived Cannabinoid Compounds in AB White, 8° C. (390 days): 0.310 µg/mL
- Stability of Plant-Derived Cannabinoid Compounds in AB White, 8° C. (420 days): 0.307 µg/mL
- Stability of Plant-Derived Cannabinoid Compounds in AB White, 8° C. (450 days): 0.312 µg/mL
- Stability of Plant-Derived Cannabinoid Compounds in AB White, 8° C. (480 days): 0.305 µg/mL
- Stability of Plant-Derived Cannabinoid Compounds in AB White, 8° C. (510 days): 0.295 µg/mL
- Stability of Plant-Derived Cannabinoid Compounds in AB White, 8° C. (540 days): 0.299 µg/mL
- Stability of Plant-Derived Cannabinoid Compounds in AB White, 8° C. (570 days): 0.293 µg/mL
- Stability of Plant-Derived Cannabinoid Compounds in AB White, 21-25° C. (0 days): 0.320 µg/mL
- Stability of Plant-Derived Cannabinoid Compounds in AB White, 21-25° C. (1 days): 0.313 µg/mL
- Stability of Plant-Derived Cannabinoid Compounds in AB White, 21-25° C. (2 days): 0.318 µg/mL
- Stability of Plant-Derived Cannabinoid Compounds in AB White, 21-25° C. (3 days): 0.311 µg/mL
- Stability of Plant-Derived Cannabinoid Compounds in AB White, 21-25° C. (5 days): 0.323 µg/mL
- Stability of Plant-Derived Cannabinoid Compounds in AB White, 21-25° C. (8 days): 0.319 µg/mL
- Stability of Plant-Derived Cannabinoid Compounds in AB White, 21-25° C. (9 days): 0.307 µg/mL
- Stability of Plant-Derived Cannabinoid Compounds in AB White, 21-25° C. (10 days): 0.312 µg/mL
- Stability of Plant-Derived Cannabinoid Compounds in AB White, 21-25° C. (11 days): 0.311 µg/mL
- Stability of Plant-Derived Cannabinoid Compounds in AB White, 21-25° C. (12 days): 0.316 µg/mL
- Stability of Plant-Derived Cannabinoid Compounds in AB White, 21-25° C. (15 days): 0.311 µg/mL
- Stability of Plant-Derived Cannabinoid Compounds in AB White, 21-25° C. (16 days): 0.321 µg/mL
- Stability of Plant-Derived Cannabinoid Compounds in AB White, 21-25° C. (17 days): 0.323 µg/mL
- Stability of Plant-Derived Cannabinoid Compounds in AB White, 21-25° C. (18 days): 0.313 µg/mL
- Stability of Plant-Derived Cannabinoid Compounds in AB White, 21-25° C. (19 days): 0.316 µg/mL
- Stability of Plant-Derived Cannabinoid Compounds in AB White, 21-25° C. (22 days): 0.322 µg/mL
- Stability of Plant-Derived Cannabinoid Compounds in AB White, 21-25° C. (23 days): 0.316 µg/mL
- Stability of Plant-Derived Cannabinoid Compounds in AB White, 21-25° C. (24 days): 0.308 µg/mL
- Stability of Plant-Derived Cannabinoid Compounds in AB White, 21-25° C. (25 days): 0.310 µg/mL
- Stability of Plant-Derived Cannabinoid Compounds in AB White, 21-25° C. (26 days): 0.308 µg/mL
- Stability of Plant-Derived Cannabinoid Compounds in AB White, 21-25° C. (29 days): 0.317 µg/mL
- Stability of Plant-Derived Cannabinoid Compounds in AB White, 21-25° C. (30 days): 0.317 µg/mL
- Stability of Plant-Derived Cannabinoid Compounds in AB White, 21-25° C. (60 days): 0.306 µg/mL
- Stability of Plant-Derived Cannabinoid Compounds in AB White, 21-25° C. (90 days): 0.305 µg/mL
- Stability of Plant-Derived Cannabinoid Compounds in AB White, 21-25° C. (120 days): 0.318 µg/mL
- Stability of Plant-Derived Cannabinoid Compounds in AB White, 21-25° C. (150 days): 0.312 µg/mL
- Stability of Plant-Derived Cannabinoid Compounds in AB White, 21-25° C. (180 days): 0.315 µg/mL
- Stability of Plant-Derived Cannabinoid Compounds in AB White, 21-25° C. (210 days): 0.307 µg/mL
- Stability of Plant-Derived Cannabinoid Compounds in AB White, 21-25° C. (240 days): 0.304 µg/mL
- Stability of Plant-Derived Cannabinoid Compounds in AB White, 21-25° C. (270 days): 0.316 µg/mL
- Stability of Plant-Derived Cannabinoid Compounds in AB White, 21-25° C. (300 days): 0.312 µg/mL
- Stability of Plant-Derived Cannabinoid Compounds in AB White, 21-25° C. (330 days): 0.312 µg/mL
- Stability of Plant-Derived Cannabinoid Compounds in AB White, 21-25° C. (360 days): 0.310 µg/mL
- Stability of Plant-Derived Cannabinoid Compounds in AB White, 21-25° C. (390 days): 0.303 µg/mL
- Stability of Plant-Derived Cannabinoid Compounds in AB White, 21-25° C. (420 days): 0.312 µg/mL
- Stability of Plant-Derived Cannabinoid Compounds in AB White, 21-25° C. (450 days): 0.310 µg/mL
- Stability of Plant-Derived Cannabinoid Compounds in AB White, 21-25° C. (480 days): 0.294 µg/mL
- Stability of Plant-Derived Cannabinoid Compounds in AB White, 21-25° C. (510 days): 0.293 µg/mL
- Stability of Plant-Derived Cannabinoid Compounds in AB White, 21-25° C. (540 days): 0.294 µg/mL
- Stability of Plant-Derived Cannabinoid Compounds in AB White, 21-25° C. (570 days): 0.295 µg/mL

Reference: patent US20260130395A1, “Water Dispersible Botanical Compositions” (Aquila Black Limited, priority 2021, published 2026)
